What was measured:
Format in all cases: physicochemical
[1] = Particle size distribution of the powder produced by high pressure cavitation (HPC) and spray drying; details: dry powder after HPC followed by spray drying
Excerpt: The suspension may be passed through a high pressure cavitation apparatus several times until the desired particle size and size distribution is achieved. […] The recirculation may, for example, be performed from 2-30 times (or cycles) depending upon the API. Preferred cycle ranges include from 5 to 25 and 15 to 25. […] As will be clear to those in the art, span is defined by the ratio ((Dv90−Dv10)/Dv50), with Dv being the diameter value at which a defined percentage of the particles (eg 10%, 50% or 90% in the equation) have a diameter equal to or less than the Dv value.

[2] = XRPD of the isolated product (polymorphic form after HPC and spray drying); details: after HPC followed by spray drying
[3] = Amorphous content determined by dynamic vapour sorption (DVS); details: after HPC followed by spray drying
[4] = Detection of the anhydrous form by near infrared spectroscopy; details: after HPC followed by spray drying
[5] = TGA of the isolated product; details: after HPC followed by spray drying

Structure (SMILES)	Dv10 [1]	Dv50 [1]	Dv90 [1]	span ((Dv90−Dv10)/Dv50) [1]	amorphous content [3]	anhydrous form [4]	TGA value [5]	XRPD of the product isolated (polymorphic form retained) [2]
C[C@@H]1C[C@H]2[C@@H]3C[C@H](F)C4=CC(=O)C=C[C@]4(C)[C@@]3(F)[C@@H](O)C[C@]2(C)[C@@]1(OC(=O)c1ccco1)C(=O)SCF [Fluticasone furoate]	0.89 μm	1.95 μm	3.78 μm	1.5	–	–	–	substantially the same as the starting material
C[N+]1(C)[C@@H]2C[C@@H](OC(=O)C(O)(c3cccs3)c3cccs3)C[C@H]1[C@@H]1O[C@@H]12 [Tiotropium bromide]	0.74 μm	2.90 μm	5.58 μm	1.7	–	–	–	–
OCc1cc(C(O)CNCCCCCCOCCCCc2ccccc2)ccc1O (stereo not drawn) [Salmeterol xinafoate]	0.33 μm	1.37 μm	3.09 μm	2.0	–	–	–	substantially the same as the starting material

More lines, main results first:

Dv10 [1]	Dv50 [1]	Dv90 [1]	span ((Dv90−Dv10)/Dv50) [1]	amorphous content [3]	anhydrous form [4]	TGA value [5]	Structure (SMILES)	XRPD of the product isolated (polymorphic form retained) [2]
1.91 μm	3.97 μm	7.47 μm	1.4	below 1.1%	not detected	3.0%	C[C@@H]1C[C@H]2[C@@H]3CCC4=CC(=O)C=C[C@]4(C)[C@@]3(Cl)[C@@H](O)C[C@]2(C)[C@@]1(OC(=O)c1ccco1)C(=O)CCl [Mometasone furoate monohydrate]	substantially the same as claimed in U.S. Pat. No. 6,180,781B1
1.20 μm	2.45 μm	4.68 μm	1.4	–	–	–	CCC(=O)O[C@]1(C(=O)SCF)[C@H](C)C[C@H]2[C@@H]3C[C@H](F)C4=CC(=O)C=C[C@]4(C)[C@@]3(F)[C@@H](O)C[C@@]21C [Fluticasone propionate]	substantially the same as the starting material

Source: patent publication US9956144B2, “Process for particle processing of active pharmaceutical ingredients” (HOVIONE INTER LIMITED, priority 2010, dated 2018)
